Test results from patent US20250290117A1, “MOLECULAR PHENOTYPIC ANTIMICROBIAL SUSCEPTIBILITY TESTING” (priority 2024, published 2025).

Legend:
Type in all cases: cell-based
Acinetobacter baumannii [1] = assay: Molecular phenotypic antimicrobial susceptibility test (extraction/DNA purification prior to PCR)
Procedure: Detection of Molecular Phenotypic Antimicrobial Susceptibility. Disclosed herein are the methods for the detection of phenotypic antimicrobial susceptibility via molecular methods. The present invention describes how a specimen 100 with a known microbial load is incubated and then exposed to a panel of antimicrobial agents to determine sensitivity (prevention of growth) or resistance (allowance of growth) to the specific antimicrobial agents tested utilizing molecular methods. Sample Collection. Specimens 100 are collected from patients using sterile collection processes that are employed in routine clinical care. Specimens are transported to the testing facility in boric acid preservative. […] The specimens 100 are put through a pathogen identification process using PCR technology (e.g., using the first sample 104). The process for pathogen isolation includes steps of harvesting the pathogen (e.g., via centrifugation), isolating pathogen DNA via a DNA isolation and/or purification kit, and performing PCR on the pathogen DNA via PCR components (e.g., primers, enzymes, buffers) as would be known to the skilled artisan. Simultaneously, an additional aliquot of the same specimen (e.g., the second sample 108) is placed with liquid culture media and incubated for 4-6 hours. This aliquot is used for antimicrobial susceptibility testing if indicated based on the pathogen detection results. […] Specimens 100 with lower pathogen loads could also be utilized in the antibiotic susceptibility phase of testing with or without a longer incubation period. […] Antimicrobial solutions are prepared at known concentrations. The specific antimicrobials and their concentrations are selected based on the pathogen of interest and the described antimicrobial resistance breakpoints for that specimen pathogen and antimicrobial combination. These antimicrobials have been selected based on those commonly utilized by healthcare providers in routine clinical care for the specific type of suspected infection. The number and types of antimicrobials utilized can be customized based on the infection source, pathogen detected, patient-specific factors such as allergies or other health conditions (e.g., chronic kidney disease or concurrent medication use), or healthcare provider preferences such as antimicrobial availability or cost. The antimicrobial solutions are prepared in liquid culture media (such as Muller Hinton Broth) to achieve the desired antimicrobial concentration and are then stored at −80° C. until use. For a given specimen, each antimicrobial is tested at a single or multiple antimicrobial concentration(s) which is its established breakpoints for sensitivity. The antimicrobial solutions are prepared and plated out for each specific pathogen. This allows ease of use on the day of testing after defrosting the plate 112. Table 1, which illustrates the results of molecular phenotypic antimicrobial susceptibility testing when more than one organism is present in the source specimen, provides an example of an antimicrobial plate 112 prepared for this purpose. Of note, control wells containing only culture media are present on all plates 112. This allows for evaluation of pathogen load when no antimicrobial is present. Specimen Exposure to Antimicrobial Agents. The 1 mL aliquot of the specimen 100 previously mixed with culture media and incubated is obtained. Using optical density measurements as a guide, the specimen 100 is diluted to 0.5 McFarland. The specimen 100 is then placed into the previously prepared antimicrobial susceptibility testing plate 112. Each plate 112 is prepared for a single specimen 100 for a specified pathogen based on its detection. For example, if the specimen 100 has more than one pathogen detected that needs different antimicrobial concentrations for exposure due to different minimum inhibitory concentration breakpoints for one or more organisms, then more than one antimicrobial exposure plate 112 may be needed. […]

pathogen of the specimen = assay: Traditional culture-based antimicrobial susceptibility test (comparison of Table 7); settings: E. coli isolate 1189
Procedure: Table 7 illustrates the results of an example antimicrobial agent susceptibility test of the current application versus a traditional culture-based antimicrobial agent susceptibility test at multiple incubation timepoints, in accordance with one or more embodiments of the disclosure. These specimens were tested with direct PCR (e.g., no extraction DNA purification step prior to PCR). […] Result Reporting to Healthcare Providers. The results from the antimicrobial exposure are reported to the ordering healthcare provider. This information can be utilized by the healthcare provider when selecting an antimicrobial regimen for their individual patient based on these individual specimen results and patient specific factors. […] The current standard of care for antimicrobial susceptibility testing involves the growth, isolation, and exposure of pathogens to antimicrobials. This traditional culture and sensitivity process can take multiple days to obtain results, limiting the ability of healthcare providers to receive timely results to make actionable changes in patient care or management. Healthcare providers desire a method to obtain antimicrobial susceptibility results with quicker turn-around-time. This application discloses a molecular-based phenotypic antimicrobial susceptibility method which involves pathogen exposure to a panel of antimicrobial agents at their specified minimum inhibitory concentration breakpoints for sensitivity. This method allows for more timely antimicrobial susceptibility results.

Acinetobacter baumannii [2] = assay: Traditional culture-based antimicrobial susceptibility test
From the text: Table 2 illustrates the results of an example antimicrobial agent susceptibility test of the current application versus a traditional culture-based antimicrobial agent susceptibility test for […], in accordance with one or more embodiments of the disclosure. This specimen underwent extraction and/or DNA purification prior to PCR. As in Table 1, the results of the test of the current application are similar to the results from the traditional test.
Result Reporting to Healthcare Providers. The results from the antimicrobial exposure are reported to the ordering healthcare provider. This information can be utilized by the healthcare provider when selecting an antimicrobial regimen for their individual patient based on these individual specimen results and patient specific factors. […] The current standard of care for antimicrobial susceptibility testing involves the growth, isolation, and exposure of pathogens to antimicrobials. This traditional culture and sensitivity process can take multiple days to obtain results, limiting the ability of healthcare providers to receive timely results to make actionable changes in patient care or management. Healthcare providers desire a method to obtain antimicrobial susceptibility results with quicker turn-around-time. This application discloses a molecular-based phenotypic antimicrobial susceptibility method which involves pathogen exposure to a panel of antimicrobial agents at their specified minimum inhibitory concentration breakpoints for sensitivity. This method allows for more timely antimicrobial susceptibility results.

[3] = A. baumannii isolate 1, Ct at control (average) 18.811
[4] = A. baumannii isolate 1, at sensitive breakpoint
[5] = A. baumannii isolate 2, Ct at control (average) 18.763
[6] = A. baumannii isolate 2, at sensitive breakpoint
[7] = A. baumannii isolate 3, Ct at control (average) 18.799
[8] = A. baumannii isolate 3, at sensitive breakpoint
[9] = A. baumannii isolate 4, Ct at control (average) 18.061
[10] = A. baumannii isolate 4, at sensitive breakpoint
[11] = A. baumannii isolate 5, Ct at control (average) 18.191
[12] = A. baumannii isolate 5, at sensitive breakpoint

Row | SMILES | Ct at Sensitive Breakpoint (Acinetobacter baumannii [1]; [3]) | Molecular Antimicrobial Susceptibility Result (Acinetobacter baumannii [1]; [4]) | Ct at Sensitive Breakpoint (Acinetobacter baumannii [1]; [5]) | Molecular Antimicrobial Susceptibility Result (Acinetobacter baumannii [1]; [6]) | Ct at Sensitive Breakpoint (Acinetobacter baumannii [1]; [7]) | Molecular Antimicrobial Susceptibility Result (Acinetobacter baumannii [1]; [8]) | Ct at Sensitive Breakpoint (Acinetobacter baumannii [1]; [9]) | Molecular Antimicrobial Susceptibility Result (Acinetobacter baumannii [1]; [10]) | Ct at Sensitive Breakpoint (Acinetobacter baumannii [1]; [11]) | Molecular Antimicrobial Susceptibility Result (Acinetobacter baumannii [1]; [12]) | Traditional Culture Result (pathogen of the specimen) | Traditional Culture Result (Acinetobacter baumannii [2]; A. baumannii isolate 1) | Traditional Culture Result (Acinetobacter baumannii [2]; A. baumannii isolate 2) | Traditional Culture Result (Acinetobacter baumannii [2]; A. baumannii isolate 3) | Traditional Culture Result (Acinetobacter baumannii [2]; A. baumannii isolate 4) | Traditional Culture Result (Acinetobacter baumannii [2]; A. baumannii isolate 5)
1 | O=C(O)c1cn(C2CC2)c2cc(N3CCNCC3)c(F)cc2c1=O [Ciprofloxacin] | 16.306 | Resistant | 19.471 | Resistant | 17.802 | Resistant | 18.101 | Resistant | 18.773 | Resistant | Sensitive | Resistant | Resistant | Resistant | Resistant | Resistant
2 | CO/N=C(\C(=O)N[C@@H]1C(=O)N2C(C(=O)[O-])=C(C[N+]3(C)CCCC3)CS[C@H]12)c1csc(N)n1 [Cefepime] | 19.944 | Resistant | 19.194 | Resistant | 19.873 | Sensitive (Antimicrobial wells with pathogen load detected below the control wells (typically >2 cycle thresholds later) may be reported as Sensitive) | 18.955 | Resistant | 18.489 | Resistant | Sensitive | Resistant | Resistant | Sensitive | Resistant | Resistant
